This assay has as its target human NAMPT (Homo sapiens (Human), UniProt P43490). Nature of the assay: Human recombinant enzyme assay (NMN fluorescence biochemical assay). Particulars: 6 nM human NAMPT, 60 min; for AC1.4 Human: concentration of compound that generates 40% higher activity over basal; for EC50: concentration that gives half-maximal activation. Put shortly:
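Recombinant human NAMPT (6 nM) with 2.5 mM ATP, […] PRPP and […] nicotinamide in HEPES pH 7.2 with DTT, CHAPS, NaCl, MgCl2; 60 min at ambient temperature. NMN derivatised with acetophenone/KOH/formic acid, fluorescence read at 355/460 nm. AC1.4 (40% above basal) and EC50 reported.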

human NAMPT, sequence (P43490 whole entry): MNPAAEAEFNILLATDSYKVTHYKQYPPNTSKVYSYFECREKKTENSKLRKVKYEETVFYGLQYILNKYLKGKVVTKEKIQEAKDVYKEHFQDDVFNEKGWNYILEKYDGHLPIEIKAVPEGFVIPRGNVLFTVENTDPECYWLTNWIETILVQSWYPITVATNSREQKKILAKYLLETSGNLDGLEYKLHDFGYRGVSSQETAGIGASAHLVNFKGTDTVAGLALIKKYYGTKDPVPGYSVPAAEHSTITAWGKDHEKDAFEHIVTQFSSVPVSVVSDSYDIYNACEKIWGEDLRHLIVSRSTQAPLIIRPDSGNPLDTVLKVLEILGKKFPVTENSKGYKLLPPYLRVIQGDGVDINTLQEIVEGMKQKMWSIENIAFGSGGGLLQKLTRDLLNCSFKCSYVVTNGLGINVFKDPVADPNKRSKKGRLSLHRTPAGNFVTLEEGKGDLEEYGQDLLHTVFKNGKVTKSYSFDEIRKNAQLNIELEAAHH

As to `Cc1nc(C(=O)NC(C)(C)c2cccc(F)c2)nc(NCCc2cn[nH]c2)c1C` [Compound 11, 4-((2-(1H-pyrazol-4-yl)ethyl)amino)-N-(2-(3-fluorophenyl)propan-2-yl)-5,6-dimethylpyrimidine-2-carboxamide], the “AC1.4 Human” value was 0.0465 µM and the EC50 (in general, the concentration that produces a half-maximal response) came to 0.282 µM.
`Cc1nc(C(=O)N[C@H](C)c2cccnc2)nc(NCCc2cn[nH]c2)c1C` [Compound 127, (R)-4-((2-(1H-pyrazol-4-yl)ethyl)amino)-5,6-dimethyl-N-(1-(pyridin-3-yl)ethyl)pyrimidine-2-carboxamide]: the “AC1.4 Human” value amounted to 32.9385 µM and the EC50 stood at 60 µM.
With `Cc1nc(C(=O)NC2CC(F)(F)c3ccccc32)nc(NCCc2cn[nH]c2)c1C` (stereo not drawn) [Compound 79, 4-((2-(1H-pyrazol-4-yl)ethyl)amino)-N-(3,3-difluoro-2,3-dihydro-1H-inden-1-yl)-5,6-dimethylpyrimidine-2-carboxmaide], the “AC1.4 Human” value came to 0.8395 µM and the EC50 was found to be 4.62 µM.
For `Cc1nc(C(=O)N2CCC(c3ccccc3F)C2)nc(NCCc2cn[nH]c2)c1C` (stereo not drawn) [Compound 66, (4-((2-(1H-pyrazol-4-yl)ethyl)amino)-5,6-dimethylpyrimidin-2-yl)(3-(2-fluorophenyl)pyrrolidin-1-yl)methanone], in that order: 4.5565 µM and 16.3 µM.
Take `Cc1nc(C(=O)N[C@H](C)c2ccsc2)nc(NCCc2cn[nH]c2)c1C` [Compound 35]: the “AC1.4 Human” value was 0.231 µM and the EC50 stood at 0.617 µM.
For `Cc1nc(C(=O)N[C@H](C)c2ccccn2)nc(NCCc2cn[nH]c2)c1C` [Compound 47, (R)-4-((2-(1H-pyrazol-4-yl)ethyl)amino)-5,6-dimethyl-N-(1-(pyridin-2-yl)ethyl)pyrimidine-2-carboxamide], in that order: 0.2915 µM and 2 µM.
For `Cc1nc(C(=O)NCCC(C)(C)C(F)(F)F)nc(NCCc2cn[nH]c2)c1C` [Compound 143, 4-((2-(1H-pyrazol-4-yl)ethyl)amino)-5,6-dimethyl-N-(4,4,4-trifluoro-3,3-dimethylbutyl)pyrimidine-2-carboxamide], the “AC1.4 Human” value is 4.433 µM and the EC50 is 46 µM.
For `Cc1nc(C(=O)N2C[C@@H](C)OC[C@H]2c2ccccc2)nc(NCCc2cn[nH]c2)c1C` [Compound 62, (4-((2-(1H-pyrazol-4-yl)ethyl)amino)-5,6-dimethylpyrimidin-2-yl)((2R,5R)-2-methyl-5-phenylmorpholino)methanone], in that order: 0.4295 µM and 3.21 µM.
For the compound `Cc1cccc([C@@H](C)NC(=O)c2nc(C)c(C)c(NCCc3cn[nH]c3)n2)n1` [Compound 78, (R)-4-((2-(1H-pyrazol-4-yl)ethyl)amino)-5,6-dimethyl-N-(1-(6-methylpyridin-2-yl)ethyl)pyrimidine-2-carboxamide], the “AC1.4 Human” value came to 0.81 µM and the EC50 worked out at 5.62 µM.
For `COC1(c2ccccc2)CN(C(=O)c2nc(C)c(C)c(NCCc3cn[nH]c3)n2)C1` [Compound 102, (4-((2-(1H-pyrazol-4-yl)ethyl)amino)-5,6-dimethylpyrimidin-2-yl)(3-methoxy-3-phenylazetidin-1-yl)methanone], in that order: 2.0105 µM and 12.9 µM.
For the compound `Cc1nc(C(=O)N2CCC[C@@H]2c2ccccn2)nc(NCCc2cn[nH]c2)c1C` [Compound 126, (R)-(4-((2-(1H-pyrazol-4-yl)ethyl)amino)-5,6-dimethylpyrimidin-2-yl)(2-(pyridin-2-yl)pyrrolidin-1-yl)methanone], the “AC1.4 Human” value is 3.1455 µM and the EC50 came to 13.4 µM.
Take `Cc1cccnc1[C@@H](C)NC(=O)c1nc(C)c(C)c(NCCc2cn[nH]c2)n1` [Compound 37, (R)-4-((2-(1H-pyrazol-4-yl)ethyl)amino)-5,6-dimethyl-N-(1-(3-methylpyridin-2-yl)ethyl)pyrimidine-2-carboxamide]: the “AC1.4 Human” value is 0.2055 µM and the EC50 was 1.19 µM.
As for `Cc1nc(C(=O)NC(C)(C)c2ccc(F)cc2)nc(NCCc2cn[nH]c2)c1C` [Compound 83, 4-((2-(1H-pyrazol-4-yl)ethyl)amino)-N-(2-(4-fluorophenyl)propan-2-yl)-5,6-dimethylpyrimidine-2-carboxamide], the “AC1.4 Human” value turned out to be 0.9695 µM and the EC50 came to 14.5 µM.
For `Cc1nc(C(=O)N2CC(O)(c3cccc(F)c3F)C2)nc(NCCc2cn[nH]c2)c1C` [Compound 51, (4-((2-(1H-pyrazol-4-yl)ethyl)amino)-5,6-dimethylpyrimidin-2-yl)(3-(2,3-difluorophenyl)-3-hydroxyazetidin-1-yl)methanone], the “AC1.4 Human” value came to 0.327 µM and the EC50 came to 1.88 µM.
On the same counts, the results for `Cc1nc(C(=O)NCc2cccc(F)c2)nc(NCCc2cn[nH]c2)c1C` [Compound 32, 4-((2-(1H-pyrazol-4-yl)ethyl)amino)-N-(3-fluorobenzyl)-5,6-dimethylpyrimidine-2-carboxamide] are 0.193 µM and 0.929 µM.
Consider `Cc1nc(C(=O)N2CCOC[C@@H]2c2ccccc2)nc(NCCc2cn[nH]c2)c1C` [Compound 63, (S)-(4-((2-(1H-pyrazol-4-yl)ethyl)amino)-5,6-dimethylpyrimidin-2-yl)(3-phenylmorpholino)methanone], for which the “AC1.4 Human” value stood at 0.4315 µM and the EC50 came to 2.29 µM.
With `Cc1nc(C(=O)N2CC(O)(Cc3ccccc3)C2)nc(NCCc2cn[nH]c2)c1C` [Compound 60], the “AC1.4 Human” value came to 0.4085 µM and the EC50 worked out at 3.75 µM.
Take `Cc1nc(C(=O)N2CC[C@@H](c3ccccc3)C2)nc(NCCc2cn[nH]c2)c1C` [Compound 61, (S)-(4-((2-(1H-pyrazol-4-yl)ethyl)amino)-5,6-dimethylpyrimidin-2-yl)(3-phenylpyrrolidin-1-yl)methanone]: the “AC1.4 Human” value stood at 0.409 µM and the EC50 came out at 2.11 µM.
Turning to `Cc1nc(C(=O)N2CCOCC2C(F)(F)F)nc(NCCc2cn[nH]c2)c1C` (stereo not drawn) [Compound 138, (4-((2-(1H-pyrazol-4-y)ethyl)amino)-5,6-dimethylpyrimidin-2-yl)(3-(trifluoromethyl)morpholino)methanone], the “AC1.4 Human” value was determined as 4.125 µM and the EC50 stood at 30.7 µM.
For the compound `Cc1nc(C(=O)N2CC[C@H](c3ccccc3)C2)nc(NCCc2cn[nH]c2)c1C` [Compound 52, (R)-(4-((2-(1H-pyrazol-4-yl)ethyl)amino)-5,6-dimethylpyrimidin-2-yl)(3-phenylpyrrolidin-1-yl)methanone], the “AC1.4 Human” value was determined as 0.3305 µM and the concentration giving a half-maximal response (EC50) was 1.78 µM.
For `COc1cccc([C@@H](C)NC(=O)c2nc(C)c(C)c(NCCc3cn[nH]c3)n2)n1` [Compound 43, (R)-4-((2-(1H-pyrazol-4-yl)ethyl)amino)-N-(1-(6-methoxypyridin-2-yl)ethyl)-5,6-dimethylpyrimidine-2-carboxamide], in that order: 0.273 µM and 0.827 µM.
On to `Cc1nc(C(=O)N(C)[C@H](C)c2ccccc2Cl)nc(NCCc2cn[nH]c2)c1C` [Compound 53, (R)-4-((2-(1H-pyrazol-4-yl)ethyl)amino)-N-(1-(2-chlorophenyl)ethyl)-N,5,6-trimethylpyrimidine-2-carboxamide], for which the “AC1.4 Human” value amounted to 0.3335 µM and the EC50 worked out at 2.6 µM.
For `Cc1nc(C(=O)NCC(C)(O)c2ccccc2)nc(NCCc2cn[nH]c2)c1C` (stereo not drawn) [Compound 104, 4-((2-(1H-pyrazol-4-yl)ethyl)amino)-N-(2-hydroxy-2-phenylpropyl)-5,6-dimethylpyrimidine-2-carboxamide], in that order: 1.6495 µM and 11.3 µM.
On to `Cc1nc(C(=O)NCC2(c3ccccc3)COC2)nc(NCCc2cn[nH]c2)c1C` [Compound 94, 4-((2-(1H-pyrazol-4-yl)ethyl)amino)-5,6-dimethyl-N-((3-phenyloxetan-3-yl)methyl)pyrimidine-2-carboxamide], for which the “AC1.4 Human” value worked out at 1.271 µM and the EC50 was found to be 8.13 µM.
As for `COCC(c1ccc(F)cc1)N(C)C(=O)c1nc(C)c(C)c(NCCc2cn[nH]c2)n1` (stereo not drawn) [Compound 92, 4-((2-(1H-pyrazol-4-yl)ethyl)amino)-N-(1-(4-fluorophenyl)-2-methoxyethyl)-N,5,6-trimethylpyrimidine-2-carboxamide], the “AC1.4 Human” value stood at 1.1995 µM and the EC50 worked out at 5.68 µM.
On the same counts, the results for `Cc1nc(C(=O)NCc2n[nH]c3ccccc23)nc(NCCc2cn[nH]c2)c1C` [Compound 105, N-((1H-indazol-3-yl)methyl)-4-((2-(1H-pyrazol-4-yl)ethyl)amino)-5,6-dimethylpyrimidine-2-carboxamide] are 1.669 µM and 2.52 µM.
For `Cc1nc(C(=O)NC(C)c2ccon2)nc(NCCc2cn[nH]c2)c1C` (stereo not drawn) [Compound 90, 4-((2-(1H-pyrazol-4-yl)ethyl)amino)-N-(1-(isoxazol-3-yl)ethyl)-5,6-dimethylpyrimidine-2-carboxamide], in that order: 1.17 µM and 9.24 µM.

Values taken from US20240067631A1, “PYRAZOLE DERIVATIVES USEFUL AS NAMPT MODULATORS” (Cytokinetics, Inc., priority 2020, published 2024).
